In patent US12448394B2, “Heterocyclic pyrazole derivatives as type III receptor tyrosine kinase inhibitors” (DEVELOPMENT CENTER FOR BIOTECHNOLOGY, priority 2019, dated 2025):

What was measured:
[1] = test system: HCC827 NSCLC cell with EGFR exon 19 deletion mutation; assay: HCC827 cell proliferation assay (counter screen); type: cell-based, human; conditions: Homo sapiens, HCC827 cells, 72 hours treatment, CellTiter96, read-out: anti-proliferation activity HCC827 EGFR Exon19 del, IC50 ranking
How it was run: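 HCC827 cells (EGFR exon 19 deletion) were seeded at 8000 cells/well in RPMI1640 with 10% FBS, then exposed to increasing compound concentrations for 72 h at 37 °C. Viability was read by CellTiter96 AQueous One (MTS), absorbance 490 nm after 2–4 h.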

[2] = test system: MV4-11 human acute myeloid leukemia cell with FLT3-ITD mutation; assay: MV4-11 cell proliferation assay (CellTiter 96); type: cell-based; conditions: Homo sapiens, MV4-11, 72 h, MV4-11 cells, 72 hours treatment, CellTiter96; read-out: anti-proliferation activity MV4-11 (FLT3-ITD), IC50 ranking
How it was run: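 Cells seeded at 6500/well in IMDM with 10% heat-inactivated FBS, left overnight at 37 °C, 5% CO2, then exposed to increasing compound concentrations for 72 h. Viability read as absorbance at 490 nm after 2–4 h with CellTiter96 AQueous One reagent.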

[3] = test system: Molm-14 human acute myeloid leukemia cell with FLT3-ITD mutation; assay: Molm-14 cell proliferation assay (CellTiter 96); type: cell-based; conditions: Homo sapiens; Molm-14 cells, 72 hours treatment, CellTiter96; read-out: anti-proliferation activity Molm-14 (FLT3-ITD), IC50 ranking
How it was run: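 Molm-14 (FLT3-ITD AML) cells in RPMI 1640 with 10% heat-inactivated FBS were seeded at 25000 cells/well, incubated overnight at 37° C, 5% CO2, then treated with increasing compound concentrations for 72 hours. Viability was read as absorbance at 490 nm after 2˜4 hours with CellTiter96 AQueous One reagent.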

[4] = test system: A375 melanoma cell with BRAF V600E mutation; assay: A375 cell proliferation assay (counter screen); type: cell-based, human; conditions: Homo sapiens, A-375, A375 cells, 72 hours treatment, CellTiter96, read-out: anti-proliferation activity A375 BRAF V600E, IC50 ranking
How it was run: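 A375 cells (BRAF V600E) seeded at 2000 cells/well in DMEM with 10% FBS, settled overnight at 37° C, 5% CO2, then exposed to increasing compound concentrations for 72 hours. Viability read by MTS-type CellTiter96 AQueous reagent, absorbance at 490 nm after 2–4 hours.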

[5] = test system: THP-1 human acute monocytic leukemia cell with NRAS G12D mutation; assay: THP-1 cell proliferation assay (counter screen); type: cell-based; conditions: Homo sapiens, THP-1 cells, 72 hours treatment, CellTiter96, read-out: anti-proliferation activity THP-1 NRAS N12D, IC50 ranking
How it was run: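 Viability measured as 490 nm absorbance after 2–4 h with CellTiter96 AQueous One reagent, following 72 h treatment with rising compound concentrations. THP-1 cells, 5000/well, grown in RPMI 1640 with 10% FBS and 0.05 mM 2-mercaptoethanol at 37° C, 5% CO2, plated overnight before dosing.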

[6] = test system: phosphorylation of FLT3 and its down-stream effector STAT5; assay: Western blotting of p-FLT3 and p-STAT5 in MV4-11 cells; type: cell-based; conditions: Homo sapiens; at 30 nM treatment, 3 hours, FLT3-ITD positive MV4-11 leukemia cells; read-out: inhibition activity against phosphorylation of FLT3 and its down-stream effector STAT5
How it was run: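 MV4-11 cells held overnight in IMDM with 0.1% FBS, then 3 million cells treated with compound for 3 h. Whole lysates immunoblotted for p-FLT3 (Tyr-591), p-STAT5 (Tyr-694) and actin. Band intensities at 30 nM compared to DMSO control; % inhibition = (1 − relative intensity) × 100.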

Row | SMILES | IC50 [2] [µM] | IC50 [3] [µM] | IC50 [1] [µM] | IC50 [4] [µM] | IC50 [5] [µM] | inhibition at 0.03 µM [6] [%]
1 | Cn1ncc2ccc(-c3n[nH]c4c3Cc3sc(-c5ccc(C(=O)N6CCCC6)cc5)cc3-4)cc21 [Compound 38, (4-(3-(1-methyl-1H-indazol-6-yl)-1,4-dihydro-thieno[2′,3′:4,5]cyclopenta [1,2-c]pyrazol-6-yl)phenyl)(pyrrolidin-1-yl) methanone] | < 0.03 | 0.03 to 0.1 | > 10 | > 10 | > 10 | > 50
2 | Cn1ncc2ccc(-c3n[nH]c4c3Cc3sc(-c5cnc(C(=O)N6CCOCC6)nc5)cc3-4)cc21 [Compound 41, (5-(3-(1-methyl-1H-indazol-6-yl)-1,4-dihydrothieno[2′,3′:4,5]cyclopenta[1,2-c]pyrazol-6-yl)pyrimidin-2-yl) (morpholino)methanone] | < 0.03 | < 0.03 | > 10 | > 10 | > 10 | > 50
3 | Cn1ncc2ccc(-c3n[nH]c4c3Cc3sc(-c5ccc(S(=O)(=O)N6CCOCC6)cc5)cc3-4)cc21 [Compound 47, 4-((4-(3-(1-methyl-1H-indazol-6-yl)-1,4-dihydro-thieno[2′,3′:4,5]cyclopenta [1,2-c]pyrazol-6-yl)phenyl)sulfonyl) morpholine] | < 0.03 | < 0.03 | > 10 | > 10 | > 10 | > 50
4 | COC1CN(Cc2ccc(-c3cc4c(s3)Cc3c(-c5ccc6cnn(C)c6c5)n[nH]c3-4)cc2)C1 [Compound 105, 6-(4-((3-methoxyazeti-din-1-yl)methyl)phenyl)-3-(1-methyl-1H-indazol-6-yl)-1,4-dihydrothieno [2′,3′:4,5]cyclopenta [1,2-c]pyrazole] | < 0.03 | < 0.03 | > 10 | > 10 | > 10 | > 50
5 | Cn1ncc2ccc(-c3n[nH]c4c3Cc3sc(-c5cc(C(=O)N6CCOCC6)ccn5)cc3-4)cc21 [Compound 56, (2-(3-(1-methyl-1H-indazol-6-yl)-1,4-dihydro-thieno[2′,3′:4,5]cyclopenta [1,2-c]pyrazol-6-yl)pyridin-4-yl)(morpholino) methanone] | < 0.03 | 0.03 to 0.1 | > 10 | > 10 | > 10 | > 50
6 | Cn1ncc2ccc(-c3n[nH]c4c3Cc3sc(-c5ccc(CN6CCOCC6)nc5)cc3-4)cc21 [Compound 10, 4-((5-(3-(1-methyl-1H-indazol-6-yl)-1,4-dihydro-thieno[2′,3′:4,5]cyclopenta [1,2-c]pyrazol-6-yl)pyridin-2-yl)methyl)morpholine] | < 0.03 | < 0.03 | > 10 | > 10 | > 10 | > 50
7 | Cn1cc(-c2cc3c(s2)Cc2c(-c4ccc5cnn(C)c5c4)n[nH]c2-3)cc1C(=O)N1CCOCC1 [Compound 46, (1-methyl-4-(3-(1-methyl-1H-indazol-6-yl)-1,4-dihydrothieno[2′,3′:4,5]cyclopenta[1,2-c]pyrazol-6-yl)-1H-pyrrol-2-yl) (morpholino)methanone] | < 0.03 | < 0.03 | > 10 | > 10 | > 10 | > 50
8 | Cn1ncc2ccc(-c3n[nH]c4c3Cc3sc(-c5ccc(NC6CCOCC6)cc5)cc3-4)cc21 [Compound 72, N-(4-(3-(1-methyl-1H-indazol-6-yl)-1,4-dihydro-thieno[2′,3′:4,5]cyclopenta [1,2-c]pyrazol-6-yl)phenyl)tetrahydro-2H-pyran-4-amine] | 0.03 to 0.1 | 0.1 to 0.3 | > 10 | > 10 | > 10 | > 50
9 | Cn1ncc2ccc(-c3n[nH]c4c3Cc3sc(-c5ccc(CN6CCOCC6)cc5)cc3-4)cc21 [Compound 8, 4-(4-(3-(1-methyl-1H-indazol-6-yl)-1,4-dihydro-thieno[2′,3′:4,5]cyclopenta [1,2-c]pyrazol-6-yl)benzyl) morpholine] | < 0.03 | 0.03 to 0.1 | > 10 | > 10 | > 10 | > 50
10 | Cn1ncc2ccc(-c3n[nH]c4c3Cc3sc(-c5ccc(CN6CCCCC6=O)cc5)cc3-4)cc21 [Compound 61, 1-(4-(3-(l-methyl-1H-indazol-6-yl)-1,4-dihydro-thieno[2′,3′:4,5]cyclopenta [1,2-c]pyrazol-6-yl)benzyl)piperidin-2-one] | < 0.03 | < 0.03 | > 10 | > 10 | > 10 | > 50
11 | Cn1ncc2ccc(-c3n[nH]c4c3Cc3sc(-c5ccc(CN6CCOCC6)s5)cc3-4)cc21 [Compound 51, 4-((5-(3-(1-methyl-1H-indazol-6-yl)-1,4-dihydro-thieno[2′,3′:4,5]cyclopenta [1,2-c]pyrazol-6-yl)thiophen-2-yl)methyl) morpholine] | < 0.03 | 0.03 to 0.1 | > 10 | > 10 | > 10 | > 50
12 | Cn1ncc2ccc(-c3n[nH]c4c3Cc3sc(-c5ccc(C(=O)N6CCOCC6)cc5)cc3-4)cc21 [Compound 21, (4-(3-(1-methyl-1H-indazol-6-yl)-1,4-dihydro-thieno[2′,3′:4,5]cyclopenta [1,2-c]pyrazol-6-yl)phenyl) (morpholino)methanone] | < 0.03 | < 0.03 | > 10 | > 10 | > 10 | > 50

Further lines, with some results ahead:

Row | IC50 [2] [µM] | IC50 [3] [µM] | SMILES | IC50 [1] [µM] | IC50 [4] [µM] | IC50 [5] [µM] | inhibition at 0.03 µM [6] [%]
13 | < 0.03 | < 0.03 | Cn1ncc2ccc(-c3n[nH]c4c3Cc3sc(C5CCNCC5)cc3-4)cc21 [Compound 96, 3-(1-methyl-1H-indazol-6-yl)-6-(piperidin-4-yl)-1,4-dihydrothieno [2′,3′:4,5]cyclopenta [1,2-c]pyrazole] | 1 to 10 | 1 to 10 | 0.3 to 1 | > 50
14 | 0.03 to 0.1 | 0.1 to 0.3 | CC(C)n1ncc2ccc(-c3n[nH]c4c3Cc3sc(-c5ccc(CN6CCOCC6)cc5)cc3-4)cc21 [Compound 42, 4-(4-(3-(1-isopropyl-1H-indazol-6-yl)-1,4-dihydro-thieno[2′,3′:4,5]cyclopenta [1,2-c]pyrazol-6-yl)benzyl)morpholine] | > 10 | > 10 | > 10 | > 50
15 | < 0.03 | 0.03 to 0.1 | Cn1ncc2ccc(-c3n[nH]c4c3Cc3sc(C#CCN5CCOCC5)cc3-4)cc21 [Compound 71, 4-(3-(3-(1-methyl-1H-indazol-6-yl)-1,4-dihydro-thieno[2′,3′:4,5]cyclopenta [1,2-c]pyrazol-6-yl)prop-2-yn-1-yl)morpholine] | > 10 | 1 to 10 | 1 to 10 | > 50
16 | < 0.03 | 0.03 to 0.1 | Cn1ncc2ccc(-c3n[nH]c4c3Cc3sc(-c5csc(CN6CCOCC6)c5)cc3-4)cc21 [Compound 52, 4-((4-(3-(1-methyl-1H-indazol-6-yl)-1,4-dihydro-thieno[2′,3′:4,5]cyclopenta [1,2-c]pyrazol-6-yl)thiophen-2-yl)methyl) morpholine] | > 10 | > 10 | > 10 | > 50
17 | < 0.03 | < 0.03 | Cn1ncc2ccc(-c3n[nH]c4c3Cc3sc(-c5ccc(CCN6CCOCC6=O)cc5)cc3-4)cc21 [Compound 66, 4-(4-(3-(1-methyl-1H-indazol-6-yl)-1,4-dihydro-thieno[2′,3′:4,5]cyclopenta [1,2-c]pyrazol-6-yl)phenethyl)morpholin-3-one] | > 10 | > 10 | > 10 | > 50
